Data as given in PMC4643876, “Picomolar Inhibition of Plasmepsin V, an Essential Malaria Protease, Achieved Exploiting the Prime Region” (PLoS ONE, 2015).
Where two headings read alike, the source gives them in different places. Square brackets hold non-standard residues; d marks the D form. Peptide text beside a SMILES is read from it. * marks the point of attachment. Sta = CC(C)C[C@H](N)[C@@H](O)CC(=O)O; Isovaleryl = CC(C)CC(=O)*

What was measured:
Plasmepsin V (PmV) = target: T1, Plasmepsin V (PmV) (Plasmodium falciparum, UniProt Q8I6Z5); assay: PmV inhibition, fluorimetric PExEl cleavage assay; format: biochemical
T1 construct: PmV was purified directly from parasites; made in house
Procedure: Saponin was added to culture to a final 0.05%; parasites were recovered via centrifugation at 4°C after 5 min of incubation on ice; parasite pellets were then washed twice in cold PBS and either immediately lysed or stored at -80°C until lysis. Parasites were lysed via three pulses of ultra-sonication of 10 sec duration, in PBS containing 0.5% Triton-X100 (TX-100). […] Quick washes of the resin were performed either in batches, or over columns, to remove unbound cellular material (four with ice-cold 0.5% TX-100 in PBS and a final one with cold PBS). Resin-bound PmV was stored in PBS at 4°C and used within 2–3 weeks, larger batches had Glycerol added to them, up to 10%, and were stored at -20°C for up to 5 months. […] Quality and purity of PmV batches were routinely confirmed by protein electrophoresis. Quantification of PmV was performed via densitometry analysis of stained protein SDS-PAGE gels relative to BSA standard curves.
PExEl cleavage activity was monitored by fluorimetric measurement of PExEl cleavage, as previously reported. […] PmV activity was performed at 37°C in 50 mM Tris-Maleate, pH 6.5, 50 mM NaCl, 0.05% TX-100, 2 mM DTT. Assays were routinely conducted in triplicate. Bead-bound enzyme was added to the reaction using ‘end-cut’ micropipette tips in order to facilitate sampling the suspension.
Inhibitory activities were measured in the presence of a substrate concentration of 3 μM by serial dilution of each compound in triplicates. […] Titration curves of the inhibitors were routinely composed of eleven points from 10 μM to 0.1 pM. PmV concentration was kept in the order of low picomolar (≤10 pM). […] Analysis of the half inhibitory activity (IC50) was performed by sigmoidal interpolation of the starting velocities of the hydrolytic reactions for each condition. Starting velocities were calculated on the initial linear range of the product progression curves. […] Data are presented with error bars indicating the standard deviation of three independent activity curves.

[1] = tested on: Plasmodium falciparum strain 3D7; assay: Parasite growth inhibition by flow cytometry, strain 3D7; format: cell-based; details: asynchronous 3D7 cultures, about 4 days, 0.195–200 μM, flow cytometry
[2] = 3 μM HRPII-PExEl substrate, averages of not less than three inhibition curves, read-out: IC50
[3] = 3 μM substrate, tested up to 10 μM, read-out: IC50
[4] = Activity, read-out: pIC50 (converted)

T1 sequence (Q8I6Z5 whole entry): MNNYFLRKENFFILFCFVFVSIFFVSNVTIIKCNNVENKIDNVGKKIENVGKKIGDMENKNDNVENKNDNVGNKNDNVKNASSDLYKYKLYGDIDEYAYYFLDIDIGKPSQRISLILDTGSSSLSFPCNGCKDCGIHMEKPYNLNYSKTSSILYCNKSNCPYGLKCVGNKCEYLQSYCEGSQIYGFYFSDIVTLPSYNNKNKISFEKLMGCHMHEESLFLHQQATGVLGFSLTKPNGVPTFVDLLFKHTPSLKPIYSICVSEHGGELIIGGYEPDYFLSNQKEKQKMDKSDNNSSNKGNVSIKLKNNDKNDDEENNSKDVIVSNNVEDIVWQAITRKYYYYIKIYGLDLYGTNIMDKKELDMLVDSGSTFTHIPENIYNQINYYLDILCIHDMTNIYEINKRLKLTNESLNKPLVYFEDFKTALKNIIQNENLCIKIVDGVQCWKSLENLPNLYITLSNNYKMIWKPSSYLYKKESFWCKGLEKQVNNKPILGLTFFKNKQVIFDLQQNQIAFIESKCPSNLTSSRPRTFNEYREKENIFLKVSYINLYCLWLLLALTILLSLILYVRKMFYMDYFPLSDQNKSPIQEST

SMILES | Ki (Plasmepsin V (PmV)) [nM] | IC50 (Plasmepsin V (PmV); [2]) [nM] | also measured
CC(C)C[C@H](NC(=O)[C@@H](N)CCCNC(=N)N)C(=O)N[C@@H](CC(C)C)C(O)CN[C@@H](C)C(=O)NCC(=O)O (mixture of isomers) [Compound 25] | 8.03 | 15 | –
CC(C)C[C@H](NC(=O)[C@@H](N)CCCNC(=N)N)C(=O)N[C@@H](CC(C)C)[C@@H](O)CN[C@@H](Cc1ccc(O)cc1)C(=O)NCC(=O)O [Compound 27a] | 1.86 | 3.47 | –
CC(C)C[C@H](NC(=O)[C@@H](N)CCCCN)C(=O)N[C@@H](CC(C)C)C(O)CN[C@@H](C)C(=O)N[C@@H](CCC(N)=O)C(=O)N[C@@H](C)C(N)=O (mixture of isomers) [Compound 18] | – | > 10000 | –
CC(C)C[C@H](NC(=O)[C@@H](N)Cc1c[nH]c2ccccc12)C(=O)N[C@@H](CC(C)C)[C@@H](O)CN[C@@H](C)C(=O)N[C@@H](CCC(N)=O)C(=O)N[C@@H](C)C(N)=O [Compound 19a] | 2760 | 5130 | –
O=c1oc2c(O)c(O)cc3c(=O)oc4c(O)c(O)cc1c4c23 [Ellagic acid, reference compound] | – | – | LD50 growth inhibition [1]: 2.4 µM
CC(C)C[C@H](NC(=O)[C@@H](N)Cc1ccc(O)cc1)C(=O)N[C@@H](CC(C)C)[C@@H](O)CN[C@@H](C)C(=O)N[C@@H](CCC(=O)O)C(=O)N[C@@H](C)C(N)=O [Compound 3a] | 2510 | 4680 | –
CC(C)C[C@H](NC(=O)[C@@H](N)CCCCN)C(=O)N[C@@H](CC(C)C)[C@@H](O)CN[C@@H](Cc1ccc(O)cc1)C(=O)N[C@@H](CCC(=O)O)C(N)=O [Compound 30a] | – | – | IC50 (Plasmepsin V (PmV); [3]): > 10000 nM
CC(C)C[C@H](NC(=O)[C@@H](N)CCCNC(=N)N)C(=O)N[C@@H](CC(C)C)[C@@H](O)CN[C@@H](Cc1ccc(O)cc1)C(=O)N[C@@H](CCC(N)=O)C(=O)O [Compound 26a] | 9.35 | 17.4 | –
CC(C)C[C@H](NC(=O)[C@@H](N)CCCNC(=N)N)C(=O)N[C@@H](CC(C)C)[C@@H](O)CN[C@@H](Cc1ccc(O)cc1)C(=O)N[C@@H](CCC(N)=O)C(=O)N[C@@H](C)C(N)=O [Compound 9a] | 6.8 | 12.7 | IC50 increase compared to Compound 7a (Plasmepsin V (PmV)): ~ 9 fold; IC50 increase compared to Compound 8a (Plasmepsin V (PmV)): 4–7 fold
CC(C)C[C@H](NC(=O)[C@@H](N)CCCNC(=N)N)C(=O)N[C@@H](CC(C)C)C(O)CN[C@@H](C)C(=O)N[C@@H](CCC(=O)O)C(=O)N[C@@H](C)C(N)=O (some centres unmarked) [LG20_Mix] | – | – | IC50 (Plasmepsin V (PmV); Activity, read-out: IC50): 0.37 nM; IC50 (Plasmepsin V (PmV); [4]): 0.363 nM
CC(C)C[C@H](NC(=O)[C@@H](N)Cc1c[nH]c2ccccc12)C(=O)N[C@@H](CC(C)C)C(O)CN[C@@H](C)C(=O)N[C@@H](CCC(=O)O)C(N)=O (mixture of isomers) [LG51_Mix] | – | – | IC50 (Plasmepsin V (PmV); Activity, read-out: IC50): 39500 nM; IC50 (Plasmepsin V (PmV); [4]): 39800 nM
CC(C)C[C@H](NC(=O)[C@@H](N)CCCNC(=N)N)C(=O)N[C@@H](CC(C)C)[C@H](O)CN[C@@H](Cc1ccc(O)cc1)C(=O)N[C@@H](CCC(=O)O)C(N)=O [Compound 2b] | 17.3 | 32.2 | –
CC(C)C[C@H](NC(=O)[C@@H](N)CCCNC(=N)N)C(=O)N[C@@H](CC(C)C)[C@@H](O)CN[C@@H](Cc1ccc(O)cc1)C(=O)N[C@@H](CCC(=O)O)C(=O)N[C@@H](C)C(N)=O [Compound 7a] | 0.74 | 1.38 | IC50 increase compared to Compound 1 (Plasmepsin V (PmV)): 4–7 fold
CC(C)C[C@H](NC(=O)[C@@H](N)CCCNC(=N)N)C(=O)N[C@@H](CC(C)C)C(O)CN[C@@H](C)C(=O)N[C@@H](CCC(=O)O)C(N)=O (mixture of isomers) [Compound 22] | 0.22 | 0.42 | –
CC(C)C[C@H](NC(=O)[C@@H](N)CCCNC(=N)N)C(=O)N[C@@H](CC(C)C)C(O)CN[C@@H](C)C(=O)N[C@@H](CCC(N)=O)C(N)=O (mixture of isomers) [Compound 23] | 6.94 | 12.9 | IC50 increase compared to Compound 8a (Plasmepsin V (PmV)): 2.5 fold
CC(C)C[C@H](NC(=O)[C@@H](N)CCCCN)C(=O)N[C@@H](CC(C)C)[C@@H](O)CN[C@@H](C)C(=O)N[C@@H](CCC(=O)O)C(=O)N[C@@H](C)C(N)=O [Compound 13a] | 412 | 767 | IC50 (Plasmepsin V (PmV); [3]): 770 nM
CC(C)C[C@H](NC(=O)[C@@H](N)Cc1c[nH]c2ccccc12)C(=O)N[C@@H](CC(C)C)[C@@H](O)CN[C@@H](Cc1ccc(O)cc1)C(=O)N[C@@H](CCC(=O)O)C(N)=O [Compound 32a] | – | – | IC50 (Plasmepsin V (PmV); [3]): > 10000 nM

SMILES | Ki (Plasmepsin V (PmV)) [nM] | IC50 (Plasmepsin V (PmV); [2]) [nM] | also measured
CC(C)C[C@H](NC(=O)[C@@H](N)Cc1c[nH]c2ccccc12)C(=O)N[C@@H](CC(C)C)C(O)CN[C@@H](C)C(=O)N[C@@H](CCC(=O)O)C(N)=O (mixture of isomers) [Compound 31] | – | – | IC50 (Plasmepsin V (PmV); [3]): > 10000 nM
CC(C)C[C@H](NC(=O)[C@@H](N)Cc1c[nH]c2ccccc12)C(=O)N[C@@H](CC(C)C)[C@@H](O)CN[C@@H](Cc1ccc(O)cc1)C(=O)N[C@@H](CCC(N)=O)C(=O)N[C@@H](C)C(N)=O [Compound 21a] | 673 | 1250 | –
CC(C)C[C@H](NC(=O)[C@@H](N)CCCNC(=N)N)C(=O)N[C@@H](CC(C)C)[C@@H](O)CN[C@@H](Cc1ccc(O)cc1)C(=O)N[C@@H](CCC(=O)O)C(N)=O [Compound 2a] | 0.98 | 1.83 | –
CC(C)C[C@H](NC(=O)[C@@H](N)Cc1c[nH]c2ccccc12)C(=O)N[C@@H](CC(C)C)[C@@H](O)CN[C@H](C(=O)N[C@@H](CCC(=O)O)C(N)=O)[C@@H](C)O [Compound 34a] | – | – | IC50 (Plasmepsin V (PmV); [3]): > 10000 nM
CC(C)C[C@H](NC(=O)[C@@H](N)Cc1c[nH]cn1)C(=O)N[C@@H](CC(C)C)[C@@H](O)CN[C@@H](C)C(=O)N[C@@H](CCC(=O)O)C(=O)N[C@@H](C)C(N)=O [Compound 14a] | 910 | 1690 | –
CC(C)C[C@H](NC(=O)[C@@H](N)Cc1c[nH]c2ccccc12)C(=O)N[C@@H](CC(C)C)[C@@H](O)CN[C@@H](CO)C(=O)N[C@@H](CCC(=O)O)C(N)=O [Compound 33a] | – | – | IC50 (Plasmepsin V (PmV); [3]): > 10000 nM
CC(C)C[C@H](NC(=O)[C@H](C)NC(=O)[C@@H](N)CCCNC(=N)N)[C@@H](O)CN[C@@H](Cc1ccc(O)cc1)C(=O)N[C@@H](CCC(=O)O)C(=O)N[C@@H](C)C(N)=O [Compound 11a] | 3.3 | 6.14 | IC50 increase compared to Compound 7a (Plasmepsin V (PmV)): 5 fold
CC(C)C[C@H](NC(=O)[C@@H](N)CCCCN)C(=O)N[C@@H](CC(C)C)[C@@H](O)CN[C@@H](Cc1ccc(O)cc1)C(=O)N[C@@H](CCC(=O)O)C(N)=O [LG62A_S] | – | – | IC50 (Plasmepsin V (PmV); Activity, read-out: IC50): 17500 nM; IC50 (Plasmepsin V (PmV); [4]): 17400 nM
CC(C)C[C@H](NC(=O)[C@H](CO)NC(=O)[C@@H](N)CCCNC(=N)N)C(O)CN[C@@H](Cc1ccc(O)cc1)C(=O)N[C@@H](CCC(=O)O)C(=O)N[C@@H](C)C(N)=O (mixture of isomers) [Compound 12] | 12.4 | 23.1 | IC50 increase compared to Compound 7a (Plasmepsin V (PmV)): 15 fold
CC(C)CC(=O)N[C@H](C(=O)N[C@H](C(=O)N[C@@H](CC(C)C)[C@@H](O)CC(=O)N[C@@H](C)C(=O)N[C@@H](CC(C)C)[C@@H](O)CC(=O)O)C(C)C)C(C)C [Pepstatin A, reference compound] (Isovaleryl-VV[Sta]A[Sta]-OH) | 23400 | 43500 | –
CC(C)C[C@H](NC(=O)[C@@H](N)CCCNC(=N)N)C(=O)N[C@@H](CC(C)C)[C@H](O)CN[C@@H](Cc1ccc(O)cc1)C(=O)NCC(=O)O [LG69B_R] | – | – | IC50 (Plasmepsin V (PmV); Activity, read-out: IC50): 111 nM; IC50 (Plasmepsin V (PmV); [4]): 112 nM
CC(C)C[C@H](NC(=O)[C@@H](N)CCCNC(=N)N)C(=O)N[C@@H](CC(C)C)[C@@H](O)CN[C@@H](C)C(=O)N[C@@H](CCC(N)=O)C(=O)O [Compound 24a] | 8.9 | 16.6 | –
Cc1cccc(C)c1OCC(=O)N[C@@H](Cc1ccccc1)[C@@H](O)C[C@H](Cc1ccccc1)NC(=O)[C@H](C(C)C)N1CCCNC1=O [Lopinavir, reference compound] | 11000 | 20600 | –
CC(C)C[C@H](NC(=O)[C@@H](N)CCCCN)C(=O)N[C@@H](CC(C)C)[C@@H](O)CN[C@@H](C)C(=O)N[C@@H](CCC(=O)O)C(N)=O [LG61A_S] | – | – | IC50 (Plasmepsin V (PmV); Activity, read-out: IC50): 8180 nM; IC50 (Plasmepsin V (PmV); [4]): 8130 nM
CC(C)C[C@H](NC(=O)[C@@H](N)Cc1c[nH]cn1)C(=O)N[C@@H](CC(C)C)[C@@H](O)CN[C@@H](Cc1ccc(O)cc1)C(=O)N[C@@H](CCC(N)=O)C(=O)N[C@@H](C)C(N)=O [Compound 20a] | 4410 | 8200 | –
CCCCCCCC(=O)N[C@@H](CCCNC(=N)N)C(=O)N[C@@H](CC(C)C)C(=O)N[C@@H](CC(C)C)[C@H](O)CN[C@@H](Cc1ccc(O)cc1)C(=O)N[C@@H](CCC(=O)O)C(=O)N[C@@H](C)C(N)=O [LG63B_R] | – | – | IC50 (Plasmepsin V (PmV); Activity, read-out: IC50): 1.57 nM; IC50 (Plasmepsin V (PmV); [4]): 1.58 nM
CC(C)C[C@H](NC(=O)[C@@H](N)Cc1ccc(O)cc1)C(=O)N[C@@H](CC(C)C)[C@H](O)CN[C@@H](C)C(=O)N[C@@H](CCC(=O)O)C(=O)N[C@@H](C)C(N)=O [Compound 3b] | 6570 | ~12200 | –
